Measurements taken from US20040023861A1, “Cysteinyl leukotriene receptor 2 (cysl t2)” (priority 2000, published 2004).

How the values were obtained:
[1] = biological target: T1, CysLT1 (Homo sapiens, UniProt Q9Y271); test: Antagonist activity against 20 nM LTD4 (NFAT luciferase reporter gene assay and FLIPR assay) at CysLT1; assay type: cell-based; conditions: concentration dependent inhibition of 20 nM LTD4; reporter gene and FLIPR assays
T1 construct: expressed in transfected cells; host or cells: CHO cells with stably integrated NFAT-luciferase reporter (CHONFAT)
T1 sequence (Q9Y271 1-337): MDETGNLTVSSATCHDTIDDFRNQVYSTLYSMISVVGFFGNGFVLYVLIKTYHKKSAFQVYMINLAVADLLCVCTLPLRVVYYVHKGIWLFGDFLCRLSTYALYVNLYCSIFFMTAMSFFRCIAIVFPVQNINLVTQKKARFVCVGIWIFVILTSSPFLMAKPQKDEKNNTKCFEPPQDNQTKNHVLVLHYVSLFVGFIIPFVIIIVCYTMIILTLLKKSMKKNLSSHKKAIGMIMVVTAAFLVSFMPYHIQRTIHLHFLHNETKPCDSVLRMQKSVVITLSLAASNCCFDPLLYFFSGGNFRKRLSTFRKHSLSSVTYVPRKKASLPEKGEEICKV

[2] = biological target: T2, HIPHUM0000007 (Homo sapiens, UniProt Q9NS75); test: Antagonist activity against 20 nM LTD4 (NFAT luciferase reporter gene assay and FLIPR assay) at HIPHUM0000007; assay type: cell-based; conditions: concentration dependent inhibition of 20 nM LTD4; reporter gene and FLIPR assays
T2 construct: expressed in transfected cells; host or cells: CHO cells with stably integrated NFAT-luciferase reporter (CHONFAT)
T2 sequence (Q9NS75 1-346): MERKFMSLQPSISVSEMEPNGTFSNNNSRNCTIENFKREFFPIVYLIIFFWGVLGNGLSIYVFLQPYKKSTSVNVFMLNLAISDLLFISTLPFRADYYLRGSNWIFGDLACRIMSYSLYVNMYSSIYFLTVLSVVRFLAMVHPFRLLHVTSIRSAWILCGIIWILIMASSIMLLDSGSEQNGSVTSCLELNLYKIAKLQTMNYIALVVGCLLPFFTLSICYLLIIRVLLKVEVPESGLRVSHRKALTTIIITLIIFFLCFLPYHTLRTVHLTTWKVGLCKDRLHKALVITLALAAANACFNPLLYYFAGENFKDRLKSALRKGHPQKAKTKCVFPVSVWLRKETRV

[3] = tested on: anesthetized rats; test: Effect of LTD4 on hemodynamics and ECG parameters in anesthetized rats; assay type: in vivo
Procedure: Adult male wistar rats (270-300 g) were used. On arrival in the animal care unit, rats were housed with free access to food and water. Room temperature (19-20° C.), relative humidity (55-60%) and light (switched on 7:00am-7:00pm) were maintained constant. An adaptation period of at least 6 days was respected before experimentation.
Aninals (n=3-4) were anesthetized by administration of pentobarbital (50/60 mg/kg, i.v.). Then, animals were placed on a heatcd (36° C.) operating table and ventilated with room air (Harvard respirator, 50-52 str/min, 7 ml/kg tidal volume). Systemic arterial blood pressure was monitored routinely from the left carotid artery (P23XL, Gould). Body temperature was controlled with a thermistor probe (Digi-sense, Cole-Parmer) and maintained within physiological range throughout the experiment by heating when necessary. A Lead 11 ECG was recorded via needle electrodes to evaluate ECG intervals and heart rate and a corrected QT interval by linear regression (QTL) was calculated according to Todt(13). All parameters were monitored on a Gould thermal array polyrecorder.
The volume of injection was normalized to 1 ml/kg. In rats receiving CysLT1 antagonists as pretreatment, the compounds were previously dissolved in ethanol (2% final concentration) or distilled water and mixed in encapsin 6% for intragastric afministration (single dose of 3 μmol/kg-10 ml/kg total volume).
Results were expressed as mean±SEM Hemodynamic and electrocardiographic variables were compared using Anova followed by multiple comparisons tests (Newmam Keuls or Tukey's test as appropriate). Values of p <0.05 were considered significant.

SMILES: CCCCC/C=C\C\C=C/C=C/C=C/[C@@H](Sc1ccc(C(=O)O)cc1)[C@@H](O)CCCC(=O)O [BayU9773]
- antagonist activity at CysLT1 [1]: low potency
- antagonist activity at HIPHUM0000007 [2]: low potency

SMILES: CCCCC/C=C\C\C=C/C=C/C=C/[C@@H](SC[C@H](N)C(=O)NCC(=O)O)[C@@H](O)CCCC(=O)O [LTD4]
- effect on blood pressure ([3]; LTD4 i.v. injection 20, 40 and 100 nmol/kg, anesthetized rats): affected blood pressure in a dose-dependent manner
- reduction in heart rate ([3]; bolus intravenous administration of LTD4, anesthetized rats): 20-30%
- rhythm disturbances (arrhythmias) ([3]; repeated administration of LTD4, doses in the range of 40 to 60 nmol/kg, anaesthetised rats): induced marked rhythm disturbances

SMILES: CN(C)C(=O)CCSC(SCCC(=O)O)c1cccc(/C=C/c2ccc3ccc(Cl)cc3n2)c1 (stereo not drawn) [MK571]
- effect of CysLT1 antagonist on LTD4 response on blood pressure ([3]; antagonist 3 μmol/kg oral 10 min or 0.3 μmol/kg i.v. 5 min before LTD4 i.v., anesthetized rats): modest partial inhibition
- effect of pretreatment on LTD4-induced reduction in heart rate ([3]; pretreatment with CysLT1 antagonist before LTD4 i.v., anesthetized rats): not significantly altered

SMILES: COc1cc(C(=O)NS(=O)(=O)c2ccccc2C)ccc1Cc1cn(C)c2ccc(NC(=O)OC3CCCC3)cc12 [Zafirlukast]
- antagonist activity at CysLT1 [1]: acted as antagonists

SMILES: CC(C)(O)c1ccccc1CC[C@@H](SCC1(CC(=O)O)CC1)c1cccc(/C=C/c2ccc3ccc(Cl)cc3n2)c1 [Montelukast]
- antagonist activity at HIPHUM0000007 [2]: inactive
